“Also recorded” adds a separate entry of the source. Each block holds one compound with its values, some of them ahead of it.
How the values were obtained:
[1] = tested on: CEM cells; assay: Reactive oxygen species (ROS) assay, DCFH-DA, DEM-treated cells; type: cell-based, human; conditions: for suppression of ROS (DCFH-DA): 0.25 μM for 15 hours, DEM 40 min, CCRF-CEM cells; for protection against ROS production (DCF fluorescence): 5 μM, pretreatment 4 or 24 h
From the text: Cellular ROS production can be monitored using 2′,7′-dichlorodihydrofluorescein diacetate (DCFH-DA) (LeBel et al. (1992) Chem. Res. Toxicol. 5, 227-231) (Molecular Probes, Eugene, Oreg., USA), a membrane permeable and oxidant-sensitive fluorescent dye. DCFH-DA is a non-fluorescent derivative of fluorescein that emits fluorescence after being oxidized by hydrogen peroxide and other ROS. The emitted fluorescence is directly proportional to the concentration of hydrogen peroxide. DCFH-DA is nonionic and nonpolar and is easily taken up by cells. Once inside the cell, DCFH-DA is hydrolyzed by cellular esterases to non-fluorescent DCFH which traps the dye in the cell. In the presence of ROS including hydrogen peroxide, DCFH is oxidized to the highly fluorescent compound dichlorofluorescein (DCF). The intracellular DCF fluorescence is used as an index of cellular ROS production.
Cellular oxidative stress was induced by pharmacological depletion of glutathione (GSH) using the chemical diethylmaleate (DEM). ROS production was assessed by monitoring DCF fluorescence. Leukemic CEM cells (ATCC®, catalogue number CRL-2264) were cultured in RPMI (GIBCO, Grand island, N.Y., USA) with 10% FCS, 2 mM glutamine (HyClone, South Logan, Utah, USA) and 1% penicillin-streptomycin mix antibiotics (Cellgro, Manassan, Va., USA) supplements. Cells were maintained in the log phase at a concentration of between 1×10^5 and 1×10^6 cells/mL. CEM cells (1×10^6 cell/mL) were plated (1 mL) in twelve well plate and treated with the invention compounds (final concentration 1 and 5 μM), and incubated for two hours at 37° C., 5% CO2. The compounds tested were prepared by first making stock solutions (2.5 mM) in dimethylsulfoxide (DMSO). Cells were treated with 5 mM DEM for 30 minutes and collected by centrifugation at 300×g for 3 min and then washed twice with Hanks' Balanced Salt Solution (HSSB) buffer (Sigma, St. Louis, Mo. USA). Cells were resuspended in HSSB buffer+10 mM glucose and incubated at 37° C. in the dark for 20 min with 10 μM DCFH-DA. Cells were collected by centrifugation at 300×g for 3 min and then washed twice with HSSB buffer. The samples were analyzed immediately by flow cytometry (Becton-Dickinson FACS Caliber), (Cell Quest software, BD Biosciences) using 488 nm excitation laser and FL1-H channel 538 nm emission filter. In each analysis, 10,000 events were recorded after cell debris were electronically gated out. Results obtained were verified by repeating experiments N=3 independent experiments. Authentic hydrogen peroxide was used as a positive control.

[2] = tested on: Human CEM leukemia cells; assay: Live/Dead Viability/Cytotoxicity flow cytometry assay; type: cell-based; conditions: overnight incubation, then DEM 3 hours
Experimental: Cell viability and cytotoxicity were determined by simultaneous staining live and dead cells using a two-color fluorescence assay, the Live/Dead® Viability/Cytotoxicity Kit (Molecular Probes). This assay is used to measure two recognized parameters of cell viability, intracellular esterase activity and plasma integrity. The membrane-impermeant DNA dye ethidium homodimer-1 (EthD-1) was used to identify dead cells whose plasma membrane integrity was disrupted. The membrane-permeant dye calcein-AM was used to label live cells. It penetrates into the cells where it is metabolized by cytoplasmic esterases and becomes a fluorescent but membrane-impermeant probe which is retained in viable cells. Human CEM leukemia cells were incubated overnight in RPMI medium (control) and in the presence of test compound and then treated with DEM for 3 hours. Cells were stained with 0.2 μM calcein-AM and 0.4 μM EthD-1. After 15 minutes, flow cytometry analysis was carried out using excitation at 488 nm. The green-fluorescent (539 nm) FL1-H channel, live-cell population appears in the lower right quadrant and the red-fluorescent (585 nm) FL2-H channel dead-cell population appears in the upper left quadrant (FIG. 11). In each analysis, 10,000 events were recorded. Results obtained were verified in three independent experiments.

[3] = tested on: CEM cells; assay: Trypan blue cell viability assay, DEM-treated cells; type: cell-based, human; conditions: overnight incubation, then 5 mM DEM, 3 h
Experimental: Cell viability determined by trypan blue exclusion assay: This technique was used to assess the cytoprotective effects of the invention compounds in cultured cells pharmacologically treated to induce cell death by GSH depletion. DEM was used to deplete cellular GSH and induce oxidative stress. The viability of DEM-treated CEM cells was determined by their ability to exclude the dye trypan blue. Viable cells exclude trypan blue; whereas, non-viable cells take up the dye and stain blue. Briefly, CEM cells were grown in RPMI 1640 medium (GIBCO, Grand island, N.Y., USA) supplemented with 10% fetal calf serum, 2 mM glutamine (HyClone, South Logan, Utah, USA), 1% penicillin-streptomycin mix (Cellgro, Manassan, Va., USA). Cells were seeded at a density of 1×10^6 cells/mL and treated with different concentrations of the invention compounds. Cells were incubated at 37° C. in a humidified atmosphere of 5% CO2 in air for three hours with 5 mM DEM. Cell viability was determined by staining cells with 0.4% trypan blue using a hemacytometer. At least 500 cells were counted for each experimental group. At the time of assay, >95% of DEM-treated cells were trypan blue positive; whereas, in non-DEM treated control cell cultures >95% cells were viable. Cell viability was expressed as the percentage of control. Data are expressed as means±S.E.M (n=3).

[4] = tested on: CEM leukemia cells; assay: C11-BODIPY581/591 oxidation in cell culture (lipid peroxidation); type: cell-based, human; conditions: 2.5 or 1 μM, pretreatment 4 or 24 hours, glutathione depleted
Experimental: Lipid peroxidation in CEM leukemia cells was detected by utilizing the oxidant-sensitive lipophilic probe C11 BODIPY^581/591. Briefly, CEM cells (5×10^5 cell/mL) were treated with the test compounds at final concentrations of 1 and 2.5 μM, and incubated at 37° C. for 4 or 24 h in a humidified atmosphere containing 5% CO2 in air. Cells were treated with 500 nM C11 BODIPY^581/591 in phenol red-free RPMI-1640 media and incubated at 37° C. in the dark for 30 minutes. The cells were washed twice with phosphate buffered saline and oxidative stress was induced with 5 mM DEM in phenol red-free RPMI-1640 media for 90 minutes. Treated cells were collected by centrifugation at 300×g for 3 minutes and then washed twice with phosphate buffered saline. Cells were resuspended in 250 μL of phosphate buffered saline and were analyzed by FACS (FACS Calibur flow cytometer, Becton Dickinson) to monitor the change in intensity of the C11 BODIPY^581/591-green (oxidized) fluorescence signal.

[5] = tested on: CEM leukemia cells; assay: Mitochondrial membrane potential (Δψm) assay, TMRM, FACS; type: cell-based, human; conditions: pretreatment 0.5, 1 or 2.5 μM overnight, DEM
Experimental: Measurement of Mitochondrial Membrane Potential (Δψm)(FACS). For the determination of Δψm, CEM leukemia cells were pre-treated with or without the test compounds. The cells were treated with 5 mM DEM for 120 minutes, collected by centrifugation at 300×g for 3 minutes and then washed twice with phosphate buffered saline. The cells were re-suspended in HSSB buffer and incubated at 37° C. in the dark for 15 minutes with 250 nM TMRM (a cationic dye which accumulates within mitochondria in accordance with the Δψm Nernst potential). Cells were collected by centrifugation at 300×g for 3 minutes and then washed twice with phosphate buffered saline. The samples were analyzed immediately by flow cytometry using 488 nm excitation laser and the FL2-H channel. The results obtained were verified in three independent experiments. The protonophore FCCP (30 μM) was used to dissipate the chemiosmotic proton gradient (ΔμH^+) and served as a control for loss of Δψm. In each analysis, 10,000 events were recorded.

[6] = C11-BODIPY581/591 oxidation lipid peroxidation assay in liposomes; conditions: 10 mM AAPH, phospholipid liposomes, phosphate buffer, 40° C.
Experimental: To overcome the problem of spectral overlap using cis-parinaric acid, a fluorescence assay for lipid peroxidation using a lipophilic probe belonging to the BODIPY class of fluorescent dyes was used. C11-BODIPY^581/591 (4,4-difluoro-5(4-phenyl-1,3-butadienyl)-4-bora-3a,4a-diaza-s-indacene-3-propionic acid) fluorescence shifts from red to green upon oxidation. C11-BODIPY^581/591 (Molecular Probes, Eugene, Oreg., USA) stock solution concentrations were determined by measuring the absorption of C11-BODIPY^581/591 at 582 nm using a molar extinction coefficient of 140,000 mol^−1 cm^−1(R. P. Haugland, (1999) Handbook of Fluorescent Probes and Research Chemicals, Molecular Probes, Inc., Eugene, Oreg.). The lipid peroxidation inducer 2,2′-Azobis (2-amidino-propane dihydrochloride) (AAPH) and the antioxidant compound α-tocopherol were obtained from Sigma (St. Louis, Mo., USA). Phospholipid bilayers were prepared from 1-stearoyl-2-oleoyl-phosphatidylcholine (SOPC) and 1,2-dilinoleoyl-phosphatidylcholine (DLPC) and were purchased from Avanti® polar lipids, INC (Alabaster, Ala., USA).
Phosphotidylcholine (PC) liposomes were prepared as described before (Guey-Shuang et al. (1982) Lipids. 17, 403-413). Briefly, DLPC (25 mg) and SOPC (25 mg) were dissolved in chloroform and the solvent was removed by nitrogen evaporation (˜2 hours to give a thin film of PC in a round bottom flask. The lipid film was hydrated with 50 mL of 10 mM Tris-HCl (pH 7.4), 100 mM KCl, shaken and sonicated for 15 seconds. The liposomes obtained were filtered several times through 0.2 μM membrane filter.
C11 BODIPY^581/591 was incorporated into liposomes and oxidized by peroxyl radicals derived from the decomposition of AAPH in presence and absence of the compounds. […] Liposomes were pre-incubated for 10 min with 200 nM C11 BODIPY^581/591 to allow their incorporation into the lipid phase of the liposomes. After the addition of AAPH (10 mM) the decay of red fluorescence was followed at λ exc=570 nm, λ em=600 nm. Relative fluorescence units were normalized to 100% intensity. Results obtained were verified by repeating experiments N=3 independent experiments.

Structure (SMILES): Cc1c(C)c2c(c(C)c1O)CCC(C)(C(=O)O)O2 (stereo not shown) [trolox, reference compound]
protection against ROS production (DCF fluorescence) [1]: no protection | maintaining cell viability (Live/Dead kit, flow cytometry) [2]: quite ineffective | maintaining cell viability (trypan blue exclusion) [3]: quite ineffective | protection against lipid peroxidation in cells (C11-BODIPY581/591 green fluorescence) [4]: no protection

Structure (SMILES): CC(=O)Oc1c(C)nc2c(c1CC[C@](C)(O)CCC[C@H](C)CCC[C@H](C)CCCC(C)C)CCN2C [compound 35, 4-((3R,7R,11R)-3-hydroxy-3,7,11,15-tetramethylhexadecyl)-1,6-dimethyl-2,3-dihydro-1H-pyrrolo[2,3-b]pyridine-5-yl acetate]
maintaining cell viability (trypan blue exclusion) [3]: both effective in maintaining cell viability following treatment with DEM, with the acetate of compound C being somewhat more effective

Structure (SMILES): COc1nc(N(C)C)nc(CCCCCCCCCCO)c1O [Compound D, 2-(dimethylamino)-4-(10-hydroxydecyl)-6-methoxypyrimidin-5-ol]
suppression of ROS production (DCF fluorescence) ([1]; pretreatment 0.5, 1 or 5 μM, DEM): most effective compound in suppressing ROS; also recorded: very effective in suppressing ROS | maintaining mitochondrial membrane potential Δψm [5]: the most effective in maintaining mitochondrial membrane potential; also recorded: very favorable properties | maintaining cell viability (trypan blue exclusion) [3]: quite effective in maintaining cell viability following DEM treatment, with D being the most effective; also recorded: superior to idebenone in maintaining the viability of DEM-treated cells

Structure (SMILES): COc1cc(C)c(O)c(CCCCCCCCCCO)n1 [Compound F, 2-(10-hydroxydecyl)-6-methoxy-4-methylpyridin-3-ol]
melting point: 80 to 81 °C

Structure (SMILES): Cc1nc(N(C)C)nc(C)c1O [compound 12, 2-N,N-dimethylamino-5-hydroxy-4,6-dimethylpyrimidine]
quenching of lipid peroxidation (retention of C11-BODIPY581/591 fluorescence) [6]: less active than its counterpart compound A

Structure (SMILES): Cc1nc2c(c(C)c1O)CCN2C [compound C redox core, 1,4,6-trimethyl-2,3-dihydro-1H-pyrrolo[2,3-b]pyridin-5-ol, reference compound]
quenching of lipid peroxidation (retention of C11-BODIPY581/591 fluorescence) ([6]; listed as 1,4,6-trimethyl-2,3-dihydro-1H-pyrrolo[2,3-b]pyridin-5-ol): much less effective in the same assay system | quenching of lipid peroxidation (retention of C11-BODIPY581/591 fluorescence) ([6]; listed as Compound C redox core): less effective than compound C itself | protection against ROS production (DCF fluorescence) [1]: no protection | maintaining cell viability (Live/Dead kit, flow cytometry) [2]: quite ineffective | maintaining cell viability (trypan blue exclusion) [3]: quite ineffective | protection against lipid peroxidation in cells (C11-BODIPY581/591 green fluorescence) [4]: no protection

Now from value to compound, other results behind:

melting point: 71 to 72 °C
Structure (SMILES): CCCCCCCCCCc1nc(N(C)C)nc(C)c1O [Compound I, 4-decyl-2-(dimethylamino)-6-methylpyrimidin-5-ol]
suppression of ROS (DCFH-DA) [1]: most effective compounds at suppressing ROS in this assay; also recorded: especially effective

melting point: 61 to 62 °C
Structure (SMILES): CCCCCc1nc(N(C)C)nc(C)c1O [Compound H, 2-(dimethylamino)-4-methyl-6-pentylpyrimidin-5-ol]

melting point: 103 to 104 °C
Structure (SMILES): Cc1nc(N)nc(CCCCCCCCCCO)c1O [Example 10, 2-amino-4-(10-hydroxydecyl)-6-methylpyrimidin-5-ol]

melting point: 86 to 87 °C
Structure (SMILES): CCCCCCCCCCCCCCCCc1nc(N(C)C)nc(C)c1O [Compound J, 2-(dimethylamino)-4-hexadecyl-6-methylpyrimidin-5-ol]
suppression of ROS (DCFH-DA) [1]: most effective compounds at suppressing ROS in this assay; also recorded: especially effective

— US8952025B2, “Multifunctional radical quenchers and their uses” (Arizona Board of Regents, A Body Corporate of the State of …, priority 2010, dated 2015)
